# Experimental data as given in ChEMBL document CHEMBL4616632, “Discovery of Cyclic Boronic Acid QPX7728, an Ultrabroad-Spectrum Inhibitor of Serine and Metallo-β-lactamases” (J Med Chem, 2020).
# Legend:
# [1] = Inhibition of […] OXA-48 using nitrocefin as substrate preincubated for 10 mins followed by substrate addition measured every 10 secs for 10 mins by spectrophotometrically analysis
# Escherichia coli [2] = assay: Inhibition of Escherichia coli EC302 TEM-10 assessed as minimum concentration of compound needed to reduce the MIC of aztreonam to 4 ug/ml
# [3] = molecular target: Beta-lactamase (Klebsiella pneumoniae) (UniProt Q93LQ9); assay: Inhibition of Klebsiella pneumoniae KP1004 KPC-2 assessed as minimum concentration of compound needed to reduce the MIC of aztreonam to 4 ug/ml
# Sequence of Beta-lactamase (Klebsiella pneumoniae) (Q93LQ9 as listed by the source): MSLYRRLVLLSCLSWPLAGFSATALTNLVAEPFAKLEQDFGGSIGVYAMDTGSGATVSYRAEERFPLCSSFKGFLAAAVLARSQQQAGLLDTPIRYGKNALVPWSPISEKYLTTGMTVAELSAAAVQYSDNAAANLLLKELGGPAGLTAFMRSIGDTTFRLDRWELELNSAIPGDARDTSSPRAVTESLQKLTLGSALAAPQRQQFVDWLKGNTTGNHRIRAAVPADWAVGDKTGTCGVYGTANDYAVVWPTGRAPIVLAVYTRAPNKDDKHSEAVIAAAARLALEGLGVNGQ
# Enterobacter cloacae = assay: Inhibition of Enterobacter cloacae ECL1002 AmpC assessed as minimum concentration of compound needed to reduce the MIC of aztreonam to 4 ug/ml
# Klebsiella pneumoniae [4] = assay: Inhibition of Klebsiella pneumoniae KP1160 IMP-26 assessed as minimum concentration of compound needed to reduce the MIC of meropenem to 1 ug/ml
# Escherichia coli [5] = assay: Inhibition of Escherichia coli ECM6625 SHV-5 assessed as minimum concentration of compound needed to reduce the MIC of aztreonam to 4 ug/ml
# [6] = Inhibition of mammalian elastase (unknown origin) using Suc-AAPA-pNA as substrate preincubated for 10 mins followed by substrate addition measured after 30 mins; set-up: species or system Homo sapiens
# [7] = molecular target: Urokinase-type plasminogen activator (Homo sapiens, UniProt P00749); assay: Inhibition of mammalian urokinase (unknown origin) using NGK-pNA as substrate preincubated for 10 mins followed by substrate addition measured after 30 mins
# Dipeptidyl peptidase 8 = Dipeptidyl peptidase 8 (Homo sapiens, UniProt Q6V1X1); assay: Inhibition of mammalian DPP8 (unknown origin) using Lys-Pro-AMC as substrate preincubated for 10 mins followed by substrate addition measured after 30 mins
# Sequence of Dipeptidyl peptidase 8 (Q6V1X1 whole entry): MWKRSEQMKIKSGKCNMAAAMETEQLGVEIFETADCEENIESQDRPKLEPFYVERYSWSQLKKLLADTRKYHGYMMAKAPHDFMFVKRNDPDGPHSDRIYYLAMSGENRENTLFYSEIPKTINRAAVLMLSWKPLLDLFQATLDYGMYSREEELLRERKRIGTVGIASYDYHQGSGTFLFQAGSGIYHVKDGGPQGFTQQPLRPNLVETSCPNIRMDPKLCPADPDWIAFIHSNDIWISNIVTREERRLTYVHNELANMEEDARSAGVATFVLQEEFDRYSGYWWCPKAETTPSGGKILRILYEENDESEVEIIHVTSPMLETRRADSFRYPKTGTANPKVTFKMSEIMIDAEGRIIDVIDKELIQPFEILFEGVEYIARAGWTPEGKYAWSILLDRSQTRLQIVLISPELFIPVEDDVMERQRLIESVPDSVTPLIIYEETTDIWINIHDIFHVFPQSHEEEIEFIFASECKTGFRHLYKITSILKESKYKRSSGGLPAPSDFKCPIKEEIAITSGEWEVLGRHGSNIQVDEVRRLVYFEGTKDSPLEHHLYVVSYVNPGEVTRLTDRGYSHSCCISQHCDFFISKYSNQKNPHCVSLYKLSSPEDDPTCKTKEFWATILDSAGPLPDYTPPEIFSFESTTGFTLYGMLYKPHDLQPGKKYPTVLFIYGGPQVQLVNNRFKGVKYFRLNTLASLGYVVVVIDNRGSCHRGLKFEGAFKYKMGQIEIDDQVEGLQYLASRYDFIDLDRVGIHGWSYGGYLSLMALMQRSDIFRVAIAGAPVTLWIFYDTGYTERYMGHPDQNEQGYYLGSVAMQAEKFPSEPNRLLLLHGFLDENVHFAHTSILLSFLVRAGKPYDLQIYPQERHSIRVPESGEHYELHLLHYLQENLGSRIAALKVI
# Dipeptidyl peptidase 9 = Dipeptidyl peptidase 9 (Homo sapiens, UniProt Q86TI2); assay: Inhibition of mammalian DPP9 (unknown origin) using Lys-Pro-AMC as substrate preincubated for 10 mins followed by substrate addition measured after 30 mins
# Sequence of Dipeptidyl peptidase 9 (Q86TI2 whole entry): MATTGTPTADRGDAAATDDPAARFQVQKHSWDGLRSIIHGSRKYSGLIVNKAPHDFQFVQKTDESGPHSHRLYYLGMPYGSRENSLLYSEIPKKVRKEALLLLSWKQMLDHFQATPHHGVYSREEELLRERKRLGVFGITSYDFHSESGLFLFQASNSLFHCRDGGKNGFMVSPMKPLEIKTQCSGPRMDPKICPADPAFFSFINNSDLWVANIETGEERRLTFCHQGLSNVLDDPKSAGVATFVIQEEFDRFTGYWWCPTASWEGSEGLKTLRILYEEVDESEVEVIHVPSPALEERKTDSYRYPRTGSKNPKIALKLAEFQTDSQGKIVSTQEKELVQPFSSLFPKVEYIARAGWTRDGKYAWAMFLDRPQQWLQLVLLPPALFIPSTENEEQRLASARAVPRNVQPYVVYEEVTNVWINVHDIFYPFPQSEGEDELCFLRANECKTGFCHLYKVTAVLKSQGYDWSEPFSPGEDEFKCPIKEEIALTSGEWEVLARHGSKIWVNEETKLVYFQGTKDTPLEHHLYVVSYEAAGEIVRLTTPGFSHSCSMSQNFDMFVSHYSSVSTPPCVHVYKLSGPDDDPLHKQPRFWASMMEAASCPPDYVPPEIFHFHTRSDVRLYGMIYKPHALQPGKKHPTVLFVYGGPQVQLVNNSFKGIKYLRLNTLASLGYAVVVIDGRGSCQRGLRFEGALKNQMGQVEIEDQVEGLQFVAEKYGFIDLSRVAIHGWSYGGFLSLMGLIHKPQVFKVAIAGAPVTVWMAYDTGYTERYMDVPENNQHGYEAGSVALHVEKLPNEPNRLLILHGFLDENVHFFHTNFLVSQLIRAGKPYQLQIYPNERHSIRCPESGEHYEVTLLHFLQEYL
# Cathepsin G = Cathepsin G (Homo sapiens, UniProt P08311); assay: Inhibition of mammalian cathepsin G (unknown origin) using Suc-AAPF-AMC as substrate preincubated for 10 mins followed by substrate addition measured after 30 mins
# Sequence of Cathepsin G (P08311 whole entry): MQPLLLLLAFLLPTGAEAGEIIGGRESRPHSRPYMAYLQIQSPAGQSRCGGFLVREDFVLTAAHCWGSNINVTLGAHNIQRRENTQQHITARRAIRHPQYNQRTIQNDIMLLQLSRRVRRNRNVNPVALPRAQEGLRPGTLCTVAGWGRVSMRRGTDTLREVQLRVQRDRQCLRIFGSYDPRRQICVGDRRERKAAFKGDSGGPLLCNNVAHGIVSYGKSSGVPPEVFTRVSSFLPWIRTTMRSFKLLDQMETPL
# [8] = molecular target: Angiotensin-converting enzyme 2 (Homo sapiens, UniProt Q9BYF1); assay: Inhibition of mammalian ACE-2 (unknown origin) using Mca-APK(Dnp) as substrate preincubated for 10 mins followed by substrate addition measured after 30 mins
# Sequence of Angiotensin-converting enzyme 2 (Q9BYF1 whole entry): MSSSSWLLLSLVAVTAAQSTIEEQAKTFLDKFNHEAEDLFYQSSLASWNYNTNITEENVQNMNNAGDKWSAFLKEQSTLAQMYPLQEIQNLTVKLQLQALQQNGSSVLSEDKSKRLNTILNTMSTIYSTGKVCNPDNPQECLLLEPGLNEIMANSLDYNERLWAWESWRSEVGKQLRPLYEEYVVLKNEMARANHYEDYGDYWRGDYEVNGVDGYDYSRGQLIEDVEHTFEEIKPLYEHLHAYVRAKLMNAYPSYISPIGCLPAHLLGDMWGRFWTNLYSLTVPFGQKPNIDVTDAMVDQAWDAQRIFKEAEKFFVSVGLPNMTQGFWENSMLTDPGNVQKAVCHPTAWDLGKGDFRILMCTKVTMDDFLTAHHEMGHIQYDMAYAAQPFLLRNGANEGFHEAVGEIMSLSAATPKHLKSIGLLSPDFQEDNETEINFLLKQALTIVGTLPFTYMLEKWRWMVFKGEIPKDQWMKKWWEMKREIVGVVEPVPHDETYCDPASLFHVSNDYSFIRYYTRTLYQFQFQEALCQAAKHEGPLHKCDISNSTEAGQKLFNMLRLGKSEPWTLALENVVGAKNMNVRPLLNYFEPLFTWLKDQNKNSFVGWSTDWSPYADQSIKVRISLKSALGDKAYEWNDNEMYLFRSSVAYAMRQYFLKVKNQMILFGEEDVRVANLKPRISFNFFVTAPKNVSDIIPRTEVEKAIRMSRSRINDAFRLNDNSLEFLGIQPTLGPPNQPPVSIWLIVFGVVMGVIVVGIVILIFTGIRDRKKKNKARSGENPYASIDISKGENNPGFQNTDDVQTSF
# [9] = molecular target: Matrix metalloproteinase-9 (Homo sapiens, UniProt P14780); assay: Inhibition of mammalian MMP-9 (unknown origin) using McaPLGLDpaAR-NH2 as substrate preincubated for 10 mins followed by substrate addition measured after 30 mins
# Sequence of Matrix metalloproteinase-9 (P14780 whole entry): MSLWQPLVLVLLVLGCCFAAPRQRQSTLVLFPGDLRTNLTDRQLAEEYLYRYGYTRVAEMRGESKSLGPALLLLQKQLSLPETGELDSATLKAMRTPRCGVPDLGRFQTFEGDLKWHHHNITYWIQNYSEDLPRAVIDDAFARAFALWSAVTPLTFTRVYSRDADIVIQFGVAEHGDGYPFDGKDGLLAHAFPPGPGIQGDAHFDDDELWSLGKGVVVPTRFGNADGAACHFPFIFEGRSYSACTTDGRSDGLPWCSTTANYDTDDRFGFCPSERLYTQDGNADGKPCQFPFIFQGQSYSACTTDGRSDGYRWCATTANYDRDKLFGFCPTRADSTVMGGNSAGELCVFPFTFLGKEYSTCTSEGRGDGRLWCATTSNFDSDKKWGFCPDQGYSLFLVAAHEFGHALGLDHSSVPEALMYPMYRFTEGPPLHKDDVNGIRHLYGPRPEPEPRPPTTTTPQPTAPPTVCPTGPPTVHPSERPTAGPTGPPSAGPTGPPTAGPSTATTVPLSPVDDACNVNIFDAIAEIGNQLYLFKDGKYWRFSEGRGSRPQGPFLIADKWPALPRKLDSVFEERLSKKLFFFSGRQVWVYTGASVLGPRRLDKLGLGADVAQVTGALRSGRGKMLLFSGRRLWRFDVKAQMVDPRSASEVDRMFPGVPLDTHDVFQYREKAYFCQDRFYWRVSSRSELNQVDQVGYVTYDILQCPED
# [10] = Clearance in rat at 30 mg/kg, po administered via gavage by HPLC/MS analysis; format: ADME, organism-based; settings: in vivo
# [11] = Clearance in rat at 1000 mg/kg, po administered via gavage by HPLC/MS analysis; format: ADME, organism-based; settings: in vivo
# [12] = Cmax in rat at 100 mg/kg, po administered via gavage by HPLC/MS analysis; format: ADME, organism-based; set-up: dose 100 mg/kg, route oral; settings: in vivo
# [13] = Cmax in rat at 1000 mg/kg, po administered via gavage by HPLC/MS analysis; format: ADME, organism-based; set-up: dose 1000 mg/kg, route oral; settings: in vivo
# Klebsiella pneumoniae [14] = assay: Potentiation of meropenem-induced bacteriostatic activity against carbapenem-resistant Klebsiella pneumoniae KP1244 harboring KPC-3, SHV-11, and SHV-12 infected in Swiss-Webster mouse model of neutropenic thigh infection assessed as log change in bacterial count in thigh at 0.5 mg/kg, ip administered at 2 hrs interval for 24 hrs starting from 2 hr post infection and measured post last dose (reference value: 0.62 log10CFU); format: functional
# Klebsiella pneumoniae [15] = assay: Potentiation of meropenem-induced bacteriostatic activity against carbapenem-resistant Klebsiella pneumoniae KP1244 harboring KPC-3, SHV-11, and SHV-12 infected in Swiss-Webster mouse model of neutropenic thigh infection assessed as log change in bacterial count in thigh at 25 mg/kg, ip administered at 2 hrs interval for 24 hrs starting from 2 hr post infection and measured post last dose (reference value: 0.62 log10CFU); format: functional
# Klebsiella pneumoniae [16] = assay: Potentiation of meropenem-induced bacteriostatic activity against carbapenem-resistant Klebsiella pneumoniae KP1244 harboring KPC-3, SHV-11, and SHV-12 infected in Swiss-Webster mouse model of neutropenic thigh infection assessed as log change in bacterial count in thigh at 50 mg/kg, ip administered at 2 hrs interval for 24 hrs starting from 2 hr post infection and measured post last dose (reference value: 0.62 log10CFU); format: functional
# Enterobacterales [17] = assay: Potentiation of cefepime-induced antibacterial activity against Enterobacterales assessed as cefepime MIC50 at 8 ug/ml by broth microdilution method (reference value: 32 ug/ml); format: functional
# Enterobacteriaceae [18] = assay: Potentiation of cefepime-induced antibacterial activity against carbapenem-resistant Enterobacteriaceae assessed as cefepime MIC50 at 8 ug/ml by broth microdilution method (Rvb > 32 ug/ml); format: functional
# Pseudomonas aeruginosa [19] = assay: Potentiation of cefepime-induced antibacterial activity against Pseudomonas aeruginosa assessed as cefepime MIC50 at 8 ug/ml by broth microdilution method (reference value: 4 ug/ml); format: functional
# Klebsiella pneumoniae [20] = assay: Potentiation of cefepime-induced antibacterial activity against carbapenem-resistant Klebsiella pneumoniae assessed as cefepime MIC90 at 8 ug/ml by broth microdilution method (Rvb > 32 ug/ml); format: functional
# Acinetobacter baumannii = assay: Potentiation of ceftolozane-induced antibacterial activity against carbapenem-resistant Acinetobacter baumannii assessed as ceftolozane MIC50 at 8 ug/ml by broth microdilution method (Rvb > 32 ug/ml); format: functional
# Enterobacterales [21] = assay: Potentiation of ceftolozane-induced antibacterial activity against Enterobacterales assessed as ceftolozane MIC90 at 8 ug/ml by broth microdilution method (Rvb > 32 ug/ml); format: functional
# Enterobacteriaceae [22] = assay: Inhibition of OXA-48 in carbapenem-resistant Enterobacteriaceae assessed as potentiation of meropenem-induced antibacterial activity by measuring meropenem MIC50 at 8 ug/ml by broth microdilution method (reference value: 32 ug/ml)
# Enterobacteriaceae [23] = assay: Inhibition of NDM/VIM in carbapenem-resistant Enterobacteriaceae assessed as potentiation of meropenem-induced antibacterial activity by measuring meropenem MIC50 at 8 ug/ml by broth microdilution method (reference value: 32 ug/ml)
# Pseudomonas aeruginosa [24] = assay: Potentiation of meropenem-induced antibacterial activity against Pseudomonas aeruginosa assessed as meropenem MIC50 at 8 ug/ml by broth microdilution method (reference value: 0.5 ug/ml); format: functional
# Klebsiella pneumoniae [25] = assay: Potentiation of meropenem-induced antibacterial activity against carbapenem-resistant Klebsiella pneumoniae assessed as meropenem MIC90 at 8 ug/ml by broth microdilution method (Rvb > 32 ug/ml); format: functional
# Enterobacteriaceae [26] = assay: Inhibition of OXA-48 in carbapenem-resistant Enterobacteriaceae assessed as potentiation of meropenem-induced antibacterial activity by measuring meropenem MIC90 at 8 ug/ml by broth microdilution method (Rvb > 32 ug/ml)
# Enterobacteriaceae [27] = assay: Inhibition of NDM/VIM in carbapenem-resistant Enterobacteriaceae assessed as potentiation of meropenem-induced antibacterial activity by measuring meropenem MIC90 at 8 ug/ml by broth microdilution method (Rvb > 32 ug/ml)
smiles,measurement,setting,value
O=C(O)c1c(F)ccc2c1OB(O)[C@@H]1C[C@H]21 [XERUBORBACTAM],Ki,[1],0.00028 µM
same,MEC,Escherichia coli [2],0.16 µg/mL
same,MEC,[3],0.3 µg/mL
same,MEC,Enterobacter cloacae,0.6 µg/mL
same,MEC,Klebsiella pneumoniae [4],2.5 µg/mL
same,MEC,Escherichia coli [5],0.3 µg/mL
same,IC50,[6],101 µM
same,IC50,[7],> 1000 µM
same,IC50,Dipeptidyl peptidase 8,> 1000 µM
same,IC50,Dipeptidyl peptidase 9,> 1000 µM
same,IC50,Cathepsin G,666 µM
same,IC50,[8],> 1000 µM
same,IC50,[9],> 1000 µM
same,CL/F,[10],15.2 mL/min/kg
same,CL/F,[11],34.2 mL/min/kg
same,Cmax,[12],28.8 µg/mL
same,Cmax,[13],90.4 µg/mL
same,Activity,Klebsiella pneumoniae [14],-0.03 log10CFU
same,Activity,Klebsiella pneumoniae [15],-1.15 log10CFU
same,Activity,Klebsiella pneumoniae [16],-2.26 log10CFU
same,MIC50,Enterobacterales [17],≤ 0.06 µg/mL
same,MIC50,Enterobacteriaceae [18],0.125 µg/mL
same,MIC50,Pseudomonas aeruginosa [19],2 µg/mL
same,MIC90,Klebsiella pneumoniae [20],0.25 µg/mL
same,MIC50,Acinetobacter baumannii,8 µg/mL
same,MIC90,Enterobacterales [21],8 µg/mL
same,MIC50,Enterobacteriaceae [22],< 0.06 µg/mL
same,MIC50,Enterobacteriaceae [23],< 0.015 µg/mL
same,MIC50,Pseudomonas aeruginosa [24],0.25 µg/mL
same,MIC90,Klebsiella pneumoniae [25],0.125 µg/mL
same,MIC90,Enterobacteriaceae [26],0.125 µg/mL
same,MIC90,Enterobacteriaceae [27],2 µg/mL
